How the values were obtained:
HEK293T cells [1] = test: Trypan blue staining; format: cell-based; settings: data not shown
Pol I transcription [2] = test: In vitro transcription: TIF-IA mutants restoring rDNA transcription of nuclear extract from density-arrested FM3A cells; format: biochemical, murine
Method: (A) Transcriptional activity of TIF-IA mutants in vitro. FLAG-tagged wild-type TIF-IA and the indicated single or double point mutants were overexpressed in HEK293T cells, immunopurified, and 20 and 40 ng were assayed for their capability to restore rDNA transcriptional activity of nuclear extract from density-arrested FM3A cells. The amount and purity of TIF-IA were estimated on silver-stained SDS-polyacrylamide gels and Western blots (data not shown).
(A) Transcriptional activity of TIF-IAS199A and TIF-IAS199D in vitro. FLAG-tagged wild-type TIF-IA and the indicated mutants were immunopurified from HEK293T cells, and 30 and 60 ng were assayed for their capability to restore transcriptional activity of nuclear extract from density-arrested FM3A cells. The amount and purity of TIF-IA were estimated on silver-stained SDS-polyacrylamide gels (data not shown).
(B) Transcriptional activity of TIF-IAS44A in vitro. FLAG-tagged wild-type TIF-IA and the indicated mutant were assayed for their transcriptional activity in vitro.
(§1) Nuclear extracts were prepared from exponentially growing (8×10^5 cells/ml), density-arrested or PD98059-treated (CN Bioscience, Bad Soden, Germany) 40 μM, 0.5 hr) or rapamycin-treated FM3A cells (ATCC, Manassas, USA). 25 μl assays contained 50 ng of template DNA (pMr600/EcoRI), 30 μg nuclear extract proteins and 12 mM Hepes-KOH, [pH8.0], 0.1 mM EDTA, 5 mM MgCl2, 80 mM KCl, 10 mM creatine phosphate, 12% (v/v) glycerol, 0.66 mM each of ATP, GTP and CTP, 0.01 mM UTP and 0.5 μCi [α-^32P]UTP (5000 Ci/mmol). After incubation for 60 min at 30° C., RNA was extracted and analyzed on non-denaturing 5% polyacrylamide gels
TIF-IA was immunopurified from untransfected NIH3T3 cells or from HEK293T cells overexpressing FLAG-tagged TIF-IA. 4×10^6 cells were lysed in 0.8 ml IP buffer (20 mM Tris-HCl [pH 7.4], 200 mM NaCl, 2 mM EDTA, 2 mM EGTA, 1% Triton X-100, 0.5 mM PMSF, 1 μg/ml aprotinin, 5 μg/ml leupeptin and 1 μg/ml pepstatin A), centrifuged at 10,000 g for 30 min, and the supernatants were incubated for 4 hr at 4° C. with either 10 μg anti-TIF-IA antibodies bound to 20 μl protein G-agarose or with anti-FLAG (M2) agarose (Sigma-Aldrich Corp., Missouri, USA). The immunocomplexes were successively washed with buffer AM (20 mM Tris-HCl [pH 8.0], 5 mM MgCl2, 0.1 mM EDTA, 20% glycerol) containing 400 and 100 mM KCl, respectively. The amount and purity of TIF-IA was estimated on silver-stained polyacrylamide gels and similar amounts of bead-bound TIF-IA were used in in vitro transcription assays. GST fusion proteins were expressed in E. coli BL21(DE3) and purified on Glutathione-Sepharose 4B according to the manufacturer's instructions.
To assess the functional relevance of S633 and S649 phosphorylation on transcriptional activity, the respective S→A and S→D single or double point mutants were purified from transfected cells and assayed for their capability to rescue transcription of extracts from density-arrested cells. […] Thus, phosphorylation of TIF-IA at S649 and S633 is required for transcriptional activity.
Phosphorylation of peptide a should inhibit TIF-IA activity, while phosphorylation of peptide b, e.g. S44, should augment TIF-IA activity.

Pol I transcription [3] = test: Pol I reporter plasmid pMrl930-BH co-transfection in NIH3T3 cells, Northern blot; format: cell-based; settings: 0.25, 0.5 or 1 μg expression vector
Method: (C) Phosphorylation by RSK is necessary and sufficient for enhancing TIF-IA activity in vivo. NIH3T3 cells were co-transfected with 3 μg pMrl930-BH and lor 2.5 μg of pMT2-HA-CA-RSK2 (lanes 2, 3). Transcripts from the reporter plasmid were monitored on Northern blots. An ethidium bromide stain of cellular 18S and 28S rRNA is shown below.
(C) Transcriptional activity of TIF-IAS44A in vivo. NIH3T3 cells were cotransfected with 2.5 μg Pol I reporter plasmid (pMrl930-BH) and 0.25, 0.5 or 1 μg of pcDNA3.1-TIF-IA (lanes 2-4), TIF-IAS44A (lanes 5-7). Transcripts from the reporter plasmid were monitored on Northern blots. The amount of cellular 18S and 28S rRNA is shown below.
NIH3T3, HEK293T and CLL39 cells were cultured in Dulbecco's modified Eagles medium (DMEM) supplemented with 10% fetal calf serum. Cells were transfected with 5 μg of DNA per 10^6 cells using the calcium phosphate DNA coprecipitation method. Total RNA was isolated after 48 h and analyzed on Northern blots as described (Voit et al., EMBO J. 18 (1999), 1891-1899). Cellular pre-rRNA levels were monitored by hybridization to antisense RNA complementary to the first 155 nucleotides of unprocessed 45S pre-RNA. Transcripts from the rDNA reporter plasmid were monitored by hybridization to a riboprobe that is complementary to pUC sequences inserted between the rDNA promoter and terminator sequences of pMrl930-BH. […]

Pol I = test: Co-immunoprecipitation of Pol I with TIF-IA mutants from HEK293T cells; format: binding, human
Method: (§2) (B) A mutant that mimics phosphorylation of TIF-IA at S199 fails to interact with Pol I and TIF-IB. FLAG-tagged wild-type TIF-IA or the indicated point mutants were overexpressed in HEK293T cells and immunoprecipitated from cell lysates with anti-FLAG antibodies (M2 agarose). Co-precipitated Pol I and TIF-IB/SL1 were visualized on Western blots with anti-RPA116 and anti-TAFI110 antibodies.
(§3) Immunoprecipitations were carried out from human cells overexpressing FLAG-tagged TIF-IA. Cells were lysed in IP buffer, cleared by centrifugation at 10,000×g for 30 min, and the supernatants were incubated for 4 hr at 4° C. with anti-FLAG (M2) agarose (Sigma). To analyze the interaction of TIF-IA with TIF-IB/SL1, the immunoprecipitates were washed with IP buffer and TIF-IB/SL1 was visualized on immunoblots with α-TAFI110 antibodies. To monitor the interaction of TIF-IA with Pol I, the immunoprecipitates were washed with IP buffer containing 600 mM NaCl and Pol I was analyzed on Western blots using antibodies against the second largest subunit of Pol I (RPA116) or PAF67 (Seither et al., J. Biol. Chem. 382 (2001), 1163-1170).
(§4) Given the importance of mTOR-mediated alterations in the phosphorylation pattern on TIF-IA activity, one could predict that either phosphorylation of S199, dephosphorylation of S44 or both regulate the interaction of TIF-IA with the Pol I transcription apparatus. It was therefore examined whether the S→A or S→D point mutant(s) were capable of interacting with Pol I and/or TIF-IB/SL1. For this, TIF-IA was precipitated from cells overexpressing either FLAG-tagged wild-type TIF-IA or the respective S199 and S44 mutant(s), and co-precipitated Pol I and TIF-IB/SL1 were visualized on Western blots.

TIF-IB/SL1 = test: Co-immunoprecipitation of TIF-IB/SL1 with TIF-IA mutants from HEK293T cells; format: binding, human
Method: as §2, §3, §4

Pol I transcription [4] = test: In vitro transcription: TIF-IA mutants added to nuclear extract from exponentially growing FM3A cells; format: biochemical, murine; settings: 20 and 40 ng added to 15 ug nuclear extract
Method: 20 and 40 ng of the indicated TIF-IA mutants were added to 15 ug nuclear extract from exponentially growing FM3A cells and rDNA transcription was assayed.
as §1
Given that phosphorylation of TIF-IA at serine 649 is essential for transcription, excess of TIF-IAS649A should impair Pol I transcription. To test this, we examined the effect of exogenous wild-type and mutant TIF-IA on transcriptional activity of extracts from exponentially growing cells.

HEK293T cells [5] = test: Quantitative fluorimetric viability assay with calcein-AM; format: cell-based; settings: 24, 36, 48 and 60 hr after transfection; 2 μM calcein-AM
Method: (B) Quantitative fluorimetric viability assay with calcein-AM. HEK293T cells were transfected with TIF-IA or the indicated point mutants. […] Viable cells were measured 24, 36, 48 and 60 hr after transfection by incubation with […] calcein-AM. The gradual increase in fluorescence intensity was recorded with a fluorescence multi-well plate reader for 20 min with an excitation wavelength of 485 nm and an emission wavelength of 530 nm. The proliferation rate of mock-transfected cells and cells overexpressing TIF-IA is shown at the left. Plots show the accumulation of calcein fluorescence (arbitrary units) against time. Growth rates calculated from linear regression curves are shown at the right. Values are presented as the mean±SD from three independent experiments performed in duplicates.
Conversion of calcein-AM (calcein acetoxymethyl ester, (CN Bioscience GmbH, Bad Soden, Germany) to calcein was used to measure cell proliferation. 12 hr after transfection, HEK293T cells were seeded to 96-well micro-plates at 1×10^4 cells/well. After 24, 36, 48 and 60 hr, cells were washed with PBS, incubated with 2 μM calcein-AM, and the gradual increase in fluorescence intensity within the cells was recorded by a fluorescence multi-well plate reader (CytoFluor Series 4000/TC, PerSeptive Biosystems, (Applied Biosystems, Forster City, USA) for 20 min in 1 min intervals. Excitation wavelength used for measurements of fluorescence was 485 nm with a bandwidth of 20 nm; emission wavelength was 530 nm with a bandwidth of 25 nm. Under the experimental conditions used, there is a direct correlation between the accumulation ratio of intracellular calcein fluorescence and the number of viable cells. The data from three independent experiments were analyzed by Sigmaplot and expressed as the mean±standard deviation. For statistical analysis, student's t test was used. Differences with a P<0.01 were considered statistically significant.
Given the functional significance of ERK/RSK-directed TIF-IA phosphorylation on Pol I transcription, mutations that enhance or abrogate TIF-IA activity may have a positive or negative effect on cell growth. To test this, HEK293T cells were transfected with cDNAs encoding wild-type or mutant TIF-IA which harbor single or double point mutations at S649 and S633. The expression of TIF-IA was estimated on Western blots and the cellular growth rate was measured by calcein-AM staining. Calcein-AM is a non-fluorescent, hydrophobic compound that is rapidly hydrolyzed by intracellular esterases releasing hydrophilic fluorescent calcein. Thus, cellular calcein fluorescence correlates with the amount of viable cells. […] Cells expressing FLAG-tagged wild-type or mutant TIF-IA were stained with FITC-conjugated anti-FLAG antibodies, identified by FACS and cell numbers were calculated by measuring the ratio of stained cells versus an internal standard. […] Conversely, the number of cells expressing TIF-IAS649A was 33% lower than the control. […] Taken together, the results reveal a striking correlation between phosphorylation of TIF-IA at serine 649, cellular rRNA synthetic activity and cell cycle progression.

HEK293T cells [6] = test: Cell enumeration by dual-parameter flow cytometry; format: cell-based; settings: 60 hr after transfection
Method: (C) Cell enumeration by flow cytometry. HEK293T cells expressing wild-type TIF-IA or the S649 mutants were harvested 60 hours after transfection, stained with FITC-conjugated anti-FLAG M2 antibodies and analyzed by dual-parameter flow cytometry in a FACScan™ flow cytometer in the presence of CaliBRITE™ calibration beads. 60,000 events were recorded from each sample. The number of cells expressing FLAG-TIF-IA was calculated from the ratio between FITC-positive cells and counted beads.
HEK293T cells were harvested 60 hr after transfection with pcDNA-FLAG-TIF-IA, fixed with 2% paraformaldehyde and permeabilized with 0.1% Triton X-100 in PBS. […] Cell were analyzed with a FACSCan™ flow cytometer in the presence of CaliBRITE™ beads (Becton Dickinson, San Jose, USA). The number of cells expressing FLAG-TIF-IA was calculated from the ratio between FITC-positive cells and counted beads.
Given the functional significance of ERK/RSK-directed TIF-IA phosphorylation on Pol I transcription, mutations that enhance or abrogate TIF-IA activity may have a positive or negative effect on cell growth. […] The expression of TIF-IA was estimated on Western blots and the cellular growth rate was measured by calcein-AM staining. […] Thus, cellular calcein fluorescence correlates with the amount of viable cells. […]

HEK293T cells [7] = test: Relative DNA content of sorted cells by FACS analysis; format: cell-based
Method: HEK293T cells were harvested 60 hr after transfection with pcDNA-FLAG-TIF-IA, fixed with 2% paraformaldehyde and permeabilized with 0.1% Triton X-100 in PBS. Transfected cells were labeled by incubation for 1 hr with 2 μg/ml FITC-conjugated anti-M2 antibodies (Sigma) and subsequently stained with […] propidium iodide (Sigma). Cell were analyzed with a FACSCan™ flow cytometer in the presence of CaliBRITE™ beads (Becton Dickinson, San Jose, USA). The number of cells expressing FLAG-TIF-IA was calculated from the ratio between FITC-positive cells and counted beads.
Given the functional significance of ERK/RSK-directed TIF-IA phosphorylation on Pol I transcription, mutations that enhance or abrogate TIF-IA activity may have a positive or negative effect on cell growth. To test this, HEK293T cells were transfected with cDNAs encoding wild-type or mutant TIF-IA which harbor single or double point mutations at S649 and S633. The expression of TIF-IA was estimated on Western blots and the cellular growth rate was measured by calcein-AM staining. […] Thus, cellular calcein fluorescence correlates with the amount of viable cells. […] Cells expressing FLAG-tagged wild-type or mutant TIF-IA were stained with FITC-conjugated anti-FLAG antibodies, identified by FACS and cell numbers were calculated by measuring the ratio of stained cells versus an internal standard. […]

## TIF-IAS633AS649D: printed once in b155, probably a misprint of TIF-IAS633AS649A
HEK293T cells [1]
  cell viability as cause of growth inhibition: not due to decreased cell viability

## TIF-IAS44A: TIF-IA mutant, S44 mutated to alanine
Pol I transcription [2]; S199 and S44 mutants, 30 and 60 ng
  capability to rescue transcription of extracts from density-arrested cells: abolishment of transcriptional activity of TIF-IA
Pol I transcription [3]
  transcription of the Pol I reporter: inactive
Pol I
  interaction with Pol I (co-precipitated RPA116): interacted with both Pol I and TIF-IB/SL1
TIF-IB/SL1
  interaction with TIF-IB/SL1 (co-precipitated TAFI110): interacted with both Pol I and TIF-IB/SL1

## TIF-IAS649D: TIF-IA point mutant, serine 649 replaced by aspartic acid
Pol I transcription [2]; S633/S649 mutants, 20 and 40 ng
  capability to rescue transcription of extracts from density-arrested cells: activated Pol I transcription to a similar or even higher level compared to wild-type TIF-IA
Pol I transcription [4]
  effect on transcriptional activity of extracts from exponentially growing cells: enhanced Pol I transcription
HEK293T cells [5]
  cellular growth rate by calcein-AM staining: accelerated cell growth
HEK293T cells [6]
  number of cells higher compared to cells overexpressing wild-type TIF-IA: 43%
HEK293T cells [7]
  increase of G2/M-phase cells: 50%

— patent publication US20060057669A1, “Inactive transcription factor tif-ia and uses thereof” (priority 2002, published 2006)
